Legend:
DHODH of rats = settings: read-out: IC50 value for DHODH; cited from earlier work
DHODH of mice = settings: read-out: IC50 value for DHODH; cited from earlier work
DHODH of humans = settings: read-out: IC50 value for DHODH; cited from earlier work
DHODH of A. fumigatus = settings: read-out: IC50 value for DHODH; cited from earlier work
Sclerotinia sclerotiorum = settings: cited from earlier work
Fusarium graminearum = settings: cited from earlier work
P. oryzae = type: cell-based, Pyricularia oryzae
P. oryzae 40901 = type: cell-based, Pyricularia oryzae

C/C(O)=C(\C#N)C(=O)Nc1ccc(C(F)(F)F)cc1 [A77-1726, teriflunomide]
IC50 (DHODH of rats): 18 ± 3 nM | IC50 (DHODH of mice): 82 ± 21 nM | IC50 (DHODH of humans): 773 ± 78 nM

Cc1cc(-c2ccccc2)c(C(=O)C(=O)Nc2ccc(N3CCN(c4ncc(F)cn4)CC3)cc2)n1C [F901318, olorofim]
IC50 (DHODH of A. fumigatus): 44 ± 10 nM

CC1(C)N=C(c2cnc3ccccc3c2)c2ccccc2C1(F)F [quinofumelin, 3-(4,4-difluoro-3,3-dimethyl-3,4-dihydroisoquinolin-1-yl)quinoline]
antifungal activity on PDA medium (Sclerotinia sclerotiorum): strong antifungal activity | antifungal activity on PDA medium (Fusarium graminearum): strong antifungal activity | antifungal activity on PDA medium (P. oryzae): moderate antifungal activity | mycelial growth on minimal medium agar plates (P. oryzae 40901): could not be recognized | mycelial growth with exogenous orotate at high quinofumelin concentration (P. oryzae 40901): slow mycelial growth | recovery of mycelial growth by exogenous dihydroorotate (P. oryzae 40901): did not recover | recovery of mycelial growth by exogenous orotate (P. oryzae 40901): recovered | recovery of mycelial growth by exogenous uracil (P. oryzae 40901): restored

— PMC9716045 (Journal of Pesticide Science, 2022)
